The values that follow come from US7018345B2, “Iontophoresis system” (Hisamitsu Pharmaceutical Co., Inc., priority 2002, dated 2006).

Like-named read-outs stand apart in the source and are kept apart here.

The nature of the data set: Iontophoretic administration of salmon calcitonin to beagles, blood level by RIA. To be noted: for level at 0.5 h: beagle, dog, blood, pulse depolarization iontophoresis 0.2 mA for 30 min, measured 30 minutes later, beagles under pentobarbital anesthesia, read-out: blood concentration of salmon calcitonin. Type of data set: in vivo, beagle (dog). As for the experimental part: Beagles were put under pentobarbital anesthesia. A positive electrode pad containing salmon calcitonin 1000 unit (an extraction pad of an electrode structure applied to the mucous membrane of the mouth) was applied to the mucous membrane of the mouth of each beagle. A negative electrode (a counter pad of an electrode structure applied to the skin) was applied to the ear of the beagle. A pulse depolarization type iontophoresis system was used to apply a 0.2-mA current for 30 minutes. Then, 30 minutes later, the level of salmon calcitonin in the blood was measured. An RIA kit (ROIK6003, Peninsula) was used for quantification.
As in the case with Example 3, salmon calcitonin was administered to beagles under pentobarbital anesthesia. However, the positive electrode pad was not applied to the mucous membrane of the mouth but to the skin (belly). The negative electrode was applied to the ear. The other conditions are similar to those for Example 3.
FIG. 4 is a graph showing the blood concentration observed 30 minutes after the application of the present system to the mucous membrane of the mouth (Example 3) and to the skin (Comparative Example 1). The blood concentration was about 530 pg/ml 30 minutes after salmon calcitonin was administered to the dog via the mucous membrane of the mouth (Example 3). The blood concentration was about 90 pg/ml 30 minutes after salmon calcitonin was administered to the dog via the skin (Comparative Example 1). Calcitonin is ionized, but owing to its […], calcitonin permeates through the living body as a result of the flow of water caused by iontophoresis instead of its direct electric driving force.

With `CC(C)C[C@H](NC(=O)[C@H](CCCCN)NC(=O)CNC(=O)[C@H](CC(C)C)NC(=O)[C@@H](NC(=O)[C@@H]1CSSC[C@H](N)C(=O)N[C@@H](CO)C(=O)N[C@@H](CC(N)=O)C(=O)N[C@@H](CC(C)C)C(=O)N[C@@H](CO)C(=O)N[C@@H]([C@@H](C)O)C(=O)N1)C(C)C)C(=O)N[C@@H](CO)C(=O)N[C@@H](CCC(N)=O)C(=O)N[C@@H](CCC(=O)O)C(=O)N[C@@H](CC(C)C)C(=O)N[C@@H](Cc1c[nH]cn1)C(=O)N[C@@H](CCCCN)C(=O)N[C@@H](CC(C)C)C(=O)N[C@@H](CCC(N)=O)C(=O)N[C@H](C(=O)N[C@@H](Cc1ccc(O)cc1)C(=O)N1CCC[C@H]1C(=O)N[C@@H](CCCNC(=N)N)C(=O)N[C@H](C(=O)N[C@@H](CC(N)=O)C(=O)N[C@H](C(=O)NCC(=O)N[C@@H](CO)C(=O)NCC(=O)N[C@H](C(=O)N1CCC[C@H]1C(N)=O)[C@@H](C)O)[C@@H](C)O)[C@@H](C)O)[C@@H](C)O` [salmon calcitonin], the level at 0.5 h runs as follows: (topical or ocular, Comparative Example 1: positive electrode pad (1000 unit) on skin (belly)) approximately 0.09 ng/mL; (Example 3: positive electrode pad (1000 unit) on mucous membrane of the mouth) approximately 0.53 ng/mL. In addition, the “absorptivity of mucous membrane relative to skin” value (iontophoresis, mucous membrane vs skin) is recorded as “six”.
